Where two headings read alike, the source gives them in different places.
Columns and labels:
[1] = cited from earlier work
[2] = Radiolysis of ^177Lu-CDI after synthesis (radio-HPLC); type: physicochemical
Method: Labelling of CDI (54 μg) with ^177Lutetium (^177Lu) was performed in 0.083 M sodium acetate buffer at pH 5.0. 177Lu (500 MBq) and ascorbic acid (0.002 M) were added and the mixture was incubated at 85° C. for 30 min. In a similar reaction, CDI was labelled with ^177Lu in the presence of 0.01 M ascorbic acid and 0.028 M GSH.
The experiments using the radioisotope ^177Lu were performed on a Shimadzu LC-20 series LC system with two LC-20AP pumps, an SPD-20A UV/VIS detector and analysed using the LabLogic Laura software (version 4.2.11.129 SP2). […] The analytical column was an Alltima HP C18 150×4.6 mm 5 μm particle size (Hichrom, Berkshire, UK). The column was equilibrated in a mixture of 0.1% (v/v) trifluoroacetic acid in MiliQ water (mobile phase A) and acetonitrile (mobile phase B; 98/2, v/v). Samples (100 μL) were loaded on the column using the autosampler at room temperature. Products were eluted using a gradient of […] mobile phase B in mobile phase A over 0-18-28-38-42 min (^177Lu) or 0-18-28-32-33 min (^175Lu) at a flowrate of 0.6 mL/min. Absorbance was measured at 210 nm, 256 nm, and 280 nm and radioactivity was detected using a LabLogic Dual Scan-RAM.

[3] = ^177Lu-CDI dosimetry estimated from ^68Ga-CDI biodistribution and kinetics; parameters: species or system human
Source text: The biodistribution and kinetics of ^68Ga-CDI was used to estimate […] dosimetry. […] These are similar to measured renal doses from ^177Lu-dotatate and ^177Lu-PSMA. Based on these estimations and comparability of renal dose to ^177Lu-dotatate and ^177Lu-PSMA, the initial […] level of ^177Lu-CDI will be approximately 2.0 GBq.

angiogenesis = conditions: in vivo; cited from earlier work
proliferating cells = conditions: cited from earlier work
[4] = tested on: quiescent endothelial cells; conditions: quiescent endothelial cells in vitro; cited from earlier work
[5] = In vitro stability of labelled NODAGA-GSAO products at room temperature (HPLC); type: physicochemical
Method: The in vitro stability of the complexed product is an important determinant for the potential clinical use of a therapeutic compound. Post-labelling stability was assessed by incubation of the ^175Lu- and ^63Cu-labelled NODAGA-GSAO products at room temperature.
The percentage of labelling at different time-points following formation of the isotope-NODAGA-GSAO complex was measured. Results are shown in FIG. 5 for A) the ^175Lu-labelled product obtained from incubation for 30 minutes at pH 5.0 at 80° C. and B) the ^63Cu-labelled product obtained from incubation for 30 minutes at pH 5.0 at room temperature. At certain time points, aliquots were taken and the labelling (black circles) of NODAGA-GSAO were assessed by HPLC. Data are from one or two (average±S.D. of the two measurements) experiments.

[6] = Afshar-Oromieh et al., 4 subjects

In the case of `O=C([O-])CN(CCN(CC(=O)[O-])Cc1cc(CCC(=O)NCCCCCC(=O)NCCCC[C@H](NC(=O)N[C@@H](CCC(=O)O)C(=O)O)C(=O)O)ccc1[O-])Cc1cc(CCC(=O)O)ccc1[O-].[68Ga+3].[OH3+]` [^68Ga PSMA], the mean effective dose [1, 6] is listed as 2.3E-02 mSv/MBq, the renal dose [1, 6] is listed as 2.6E-01 mSv/MBq and the urinary bladder dose [1, 6] is listed as 1.3E-01 mSv/MBq. The Effective Dose ([1]; Pfob et al., 5 subjects) was 2.37E-02 mSv/MBq, the renal dose ([1]; Pfob et al., 5 subjects) was 1.21E-01 mSv/MBq and the urinary bladder dose ([1]; Pfob et al., 5 subjects) was 1.64E-01 mSv/MBq.
In the case of `O=C(O)CNC(=O)[C@H](CSCC(=O)Nc1ccc([As](O)O)cc1)NC(=O)CC[C@H](NC(=O)CCC1C(=O)[O][177Lu]2[O]C(=O)CN3CCN(CCN1CC3)CC(=O)[O]2)C(=O)O` (stereo partly drawn) [^177Lu-NODAGA-GSAO], the radiolysis after synthesis ([2]; […] incubation at room temperature, 0.002 M ascorbic acid) is reported as “did not show an increase in radiolysis”, the radiolysis ([2]; labelling in presence of 0.01 M ascorbic acid and 0.028 M GSH) is reported as “prevented radiolysis during and up to 72 h post CDI labelling” and the estimated renal dose ([3]; combined physical decay and biological clearance model) is reported as 0.36 mGy/MBq. For the same molecule, the estimated renal dose ([3]; physical decay only model) was 0.98 mGy/MBq.
For `N[C@@H](CCC(=O)N[C@@H](CSCC(=O)Nc1ccc([As](O)O)cc1)C(=O)NCC(=O)O)C(=O)O` [GSAO, 4-(N—(S-glutathionylacetyl)amino)phenylarsenous acid], the effect on angiogenesis (angiogenesis) is listed as “inhibits angiogenesis in vivo”, the toxicity (proliferating cells) is listed as “toxic to proliferating cells” and the toxicity [4] is listed as “nontoxic to quiescent endothelial cells in vitro”.
For `O=C(O)CNC(=O)[C@H](CSCC(=O)Nc1ccc([As](O)O)cc1)NC(=O)CC[C@H](NC(=O)CCC1C(=O)[O][175Lu]2[O]C(=O)CN3CCN(CCN1CC3)CC(=O)[O]2)C(=O)O` (stereo partly drawn) [^175Lu-NODAGA-GSAO], the by-products ([5]; room temperature storage) was 4-7.5 % of total AUC and the labelling remaining ([5]; room temperature, after 14 days of storage) was ~90%.
